According to patent publication US4182760A, “Benzophenone anti-oximes, diazepin-N-oxides, and their use as pharmaceutical agents and as intermediates for pharmaceutical agents” (E. I. Du Pont de Nemours and Company, priority 1977, dated 1980):

Tests used:
[1] = system: auditory pinna reflex; assay: Auditory Pinna Reflex test (loss of auditory pinna reflex); format: in vivo, mouse; conditions: fasted female white mice, intubated (oral), tested at 0.5, 2, 5 and 24 hours; for ED50: Mus musculus, read-out: Mouse ED50, Pinna Reflexes, Auditory
Procedure: (§1) Standard procedures for detecting and comparing the tranquilizer, muscle-relaxant, and sedative activity of compounds in this series for which there is a correlation with human efficacy are the following: pinna reflex tests, prehensile traction reflex tests, a muscle relaxant (anti-Straub tail) test, an antipentylenetetrazole test, and a mouse activity supression test (MAST).
(§2) Fasted female white mice, 5 per dose are intubated with drug at 4, 12, 36, 108 and 324 mg/kg in 1% Methocel®-1.25% Tween 80®, at 10 ml/kg. The auditory and tactile pinna are tested at 0.5, 2, 5 and 24 hours.
The mouse is placed on a horizontal bar 9 cm from a Galton whistle adjusted for 13 Kc. Failure to flatten the ears during one or two short bursts of sound constitutes loss of auditory pinna reflex.
(§3) Potency in the antipentylenetetrazole (PTZ) and the MAST indicates a potent antianxiety agent. Great potency for blockade of the mouse auditory pinna reflex with little or no effect on tactile pinna reflex is characteristic of minor tranquilizers. Centrally acting skeletal muscle relaxants profoundly affect the lift reflex with little effect on the grip reflex.
(§4) The following table includes the results of these tests conducted with the compounds of this invention; it also includes the results for diazepam and chlordiazepoxide, two well-known benzodiazepines widely-used commercially as tranquilizers.

[2] = system: tactile pinna reflex; assay: Tactile Pinna Reflex test (loss of tactile pinna reflex); format: in vivo, mouse; conditions: fasted female white mice, intubated (oral), tested at 0.5, 2, 5 and 24 hours; for ED50: Mus musculus, read-out: Mouse ED50, Pinna Reflexes, Tactile
Procedure: as §1, §2
The mouse is held by the tail and the hairs inside the right ear are touched by the fine wire stylus from a 27 gauge needle. Failure of the mouse to twitch or move the head constitutes loss of the tactile pinna reflex.
as §3, §4

[3] = system: lift reflex; assay: Prehensile traction test, lift reflex; format: in vivo; conditions: loss of lift reflex; for ED50: mouse, read-out: Mouse ED50, Prehensile Reflexes, Lift
Text: as §1, with “prehensile traction” left out
(§5) The mouse is gently swung by the tail toward a horizontal 12 gauge wire tautly stretched 25 cm above the bench. After the mouse grasps the wire with its forepaws, its posterior end is held directly below the wire. A normal mouse grasps the wire with its forepaws and immediately lifts its hind limbs to the wire. Failure to grasp the wire with the forepaws in one of 2 trials constitutes loss of the grip reflex; failure to lift the hind limbs to grasps the wire with at least one hind paw within 5 seconds constitutes loss of the lift reflex.
as §3, §4

[4] = system: grip reflex; assay: Prehensile traction test, grip reflex; format: in vivo; conditions: loss of grip reflex; for ED50: mouse, read-out: Mouse ED50, Prehensile Reflexes, Grip
Text: as §1, with “prehensile traction” left out
as §5, §3, §4

[5] = system: morphine-induced Straub tail; assay: Muscle relaxant (anti-Straub tail) test; format: in vivo, mouse; conditions: fasted female white mice, intubated (oral), morphine sulfate 53.7 mg/kg s.c. at 25 min, observed 30 min after test drug; for ED50: Mus musculus, 0.5 h
Text: as §1
MUSCLE RELAXANT (ANTI-STRAUB TAIL) TEST
Fasted female white mice, 5 per dose are intubated with test drug. Twenty-five minutes later morphine sulfate is given subcutaneously at 53.7 mg/kg. Thirty minutes after test drug the mice are observed for presence of Straub tail. Quantal ED50 values for blockade of morphine-induced Straub tail are calculated.
as §3, §4

[6] = system: pentylenetetrazole (PTZ) clonic convulsions; assay: Antipentylenetetrazole (PTZ) test; format: in vivo, mouse; conditions: fasted female white mice, intubated (oral), PTZ 40 mg/kg i.v. 30 min later; for ED50: Mus musculus, 0.5 h
Text: as §1
ANTIPENTYLENETETRAZOLE (PTZ) TEST
Fasted female white mice, 10 per dose are intubated with drug in vehicle as above at doses such as 0, 1, 3, 9, 27 and 81 mg/kg. Thirty minutes later the mice are dosed intravenously with PTZ (Metrazol®^1) at 40 mg/kg (ED98 for clonic convulsions). Dosed animals which remain on a 4"×4" platform for 20 seconds are considered protected. Quantal ED50's are calculated by the moving average method.
^1 Original brand of pentylenetetrazole; sterile 10% aqueous solution for parenteral injection, Knoll Pharmaceutical Company.
as §3, §4

[7] = system: shock-induced suppression of exploratory locomotor behavior; assay: Mouse activity suppression test (MAST); format: in vivo; conditions: fasted female white mice, dosed orally, 0.2 ma shock for 2.0 seconds per crossing; for ED20: Mus musculus, po
Text: as §1
MOUSE ACTIVITY S[…] (MAST)
The mouse activity s[…] (MAST) is a model system designed to detect compounds with possible antianxiety activity in humans. […] The punishment, an electric shock applied through the mouse's paws, quickly extinguishes normal behavior.
The test procedure is modified from Boissier, et al., European J. Pharm., 4, 145-151 (1968). Female white mice, fasted 16-22 hours, are randomly distributed to fiberglass holding boxes. Mice in groups of 10-20 are dosed orally and returned to their holding boxes until test time. Test drug suspensions or solutions are prepared by sonication in 1% Methocel®. Typical dose ranges include 0.5, 1, 2, and 4 mg/kg of 1, 3, 9, 27, 81 mg/kg plus a vehicle control and are selected to include one dose at which an effect such as sedation, stimulation, muscle weakness or analgesia was seen.
The test apparatus is an opaque, black plastic box with a clear lid and a stainless steel grid floor. The floor of the test box is marked off into four squares of equal size.
After dosing, a mouse is gently placed in one corner of the testing box and during the next minute each time the mouse makes a full crossing from one square section of the box to another the floor is electrified with 0.2 ma current for 2.0 seconds.
The number of shocks received by each mouse is recorded and the mean number of shocks/dose (X) is determined. When X drug at any dose is statistically greater than X controls (Kruskal-Wallis test in S. Siegel^1), antagonism of suppression obtains and the drug is presumed to have antianxiety activity.
^1 S. Siegel: Non-parametric Statistics for Behavioral Sciences, pp. 184-194, McGraw-Hill (1956).
as §3, §4

| Molecule | Mouse ED50, Pinna Reflexes, Auditory [1] | Mouse ED50, Pinna Reflexes, Tactile [2] | Mouse ED50, Prehensile Reflexes, Lift [3] | Mouse ED50, Prehensile Reflexes, Grip [4] | Mouse ED50, Muscle Relaxant [5] | Mouse ED50, PTZ [6] | Mast ED20% [7] | ED50 [1] | ED50 [2] | ED50 [3] | ED50 [4] | ED50 [5] | ED50 [6] | ED20 [7] |
| --- | --- | --- | --- | --- | --- | --- | --- | --- | --- | --- | --- | --- | --- | --- |
| 5-Chloro-2-(N-methyl-N-chlorofluoroacetamido)benzophenone anti-Oxime [(I)] | 23. | 360. | 36. | 70. | 5.8 | 4.5 | 3.5 |  |  |  |  |  |  |  |
| CN1C(=O)C(F)[N+]([O-])=C(c2ccccc2)c2cc(Cl)ccc21 (stereo not shown) [(II), 7-Chloro-3-fluoro-1,3-dihydro-1-methyl-5-phenyl-2H-1,4-benzodiazepin-2-one 4-Oxide] |  |  |  |  |  |  |  | 62 mg/kg | > 450 mg/kg | 62 mg/kg | > 450 mg/kg | 1.7 mg/kg | 3.9 mg/kg | 0.35 mg/kg |
| CNC1=Nc2ccc(Cl)cc2C(c2ccccc2)=[N+]([O-])C1 [Chlordiazepoxide] |  |  |  |  |  |  |  | 17 mg/kg | 209 mg/kg | 11 mg/kg | 232 mg/kg | 1.9 mg/kg | 4.5 mg/kg | 1.9 mg/kg |
| CN1C(=O)CN=C(c2ccccc2)c2cc(Cl)ccc21 [Diazepam] |  |  |  |  |  |  |  | 4 mg/kg | 109 mg/kg | 6 mg/kg | 97 mg/kg | 0.25 mg/kg | 1.3 mg/kg | 0.45 mg/kg |
